From the NIST ThermoML archive (doi:10.1021/acs.jced.5b00597)
Where “and” joins values, the source holds several entries; their conditions need not be identical. Identical values can stand only once. ± gives the expanded uncertainty stated by the source.

Assay: molar heat capacity at constant pressure
Conditions: Liquid, Flow calorimetry

FC(F)CC(F)(F)F [1,1,1,3,3-pentafluoropropane]
molar heat capacity at constant pressure (277.89 K, 518.3 kPa): 170.11 ± 0.67 J/K/mol
molar heat capacity at constant pressure (277.9 K, 519 kPa): 171.31 ± 1.9 J/K/mol
molar heat capacity at constant pressure (282.87 K, 509.6 kPa): 171.72 ± 0.67 J/K/mol
molar heat capacity at constant pressure (282.87 K, 511 kPa): 172.65 ± 0.8 J/K/mol
molar heat capacity at constant pressure (287.9 K, 513.9 kPa): 173.46 ± 0.67 J/K/mol
molar heat capacity at constant pressure (287.92 K, 512.5 kPa): 173.46 ± 1.6 J/K/mol and 171.85 ± 0.67 J/K/mol
molar heat capacity at constant pressure (292.91 K, 518.1 kPa): 179.09 ± 0.8 J/K/mol
molar heat capacity at constant pressure (297.89 K, 514.6 kPa): 177.61 ± 0.67 J/K/mol and 177.21 ± 0.67 J/K/mol
molar heat capacity at constant pressure (302.89 K, 517.2 kPa): 178.42 ± 0.8 J/K/mol
molar heat capacity at constant pressure (302.9 K, 518 kPa): 179.09 ± 0.8 J/K/mol
molar heat capacity at constant pressure (307.87 K, 519.5 kPa): 181.23 ± 1.2 J/K/mol
molar heat capacity at constant pressure (307.88 K, 504.1 kPa): 181.1 ± 0.67 J/K/mol
molar heat capacity at constant pressure (307.88 K, 514.4 kPa): 182.17 ± 0.94 J/K/mol [middle of 4 runs]
molar heat capacity at constant pressure (307.88 K, 808.1 kPa): 181.5 ± 0.8 J/K/mol
molar heat capacity at constant pressure (307.89 K, 517.9 kPa): 182.71 ± 1.5 J/K/mol
molar heat capacity at constant pressure (307.89 K, 518.2 kPa): 181.77 ± 1.3 J/K/mol
molar heat capacity at constant pressure (307.89 K, 522.2 kPa): 181.63 ± 0.8 J/K/mol
molar heat capacity at constant pressure (307.92 K, 415.8 kPa): 180.7 ± 0.8 J/K/mol
molar heat capacity at constant pressure (307.93 K, 520.4 kPa): 182.71 ± 2 J/K/mol
molar heat capacity at constant pressure (312.89 K, 514.5 kPa): 181.77 ± 0.8 J/K/mol
molar heat capacity at constant pressure (313.89 K, 520.4 kPa): 180.96 ± 0.8 J/K/mol
molar heat capacity at constant pressure (317.9 K, 522.2 kPa): 183.24 ± 0.8 J/K/mol
molar heat capacity at constant pressure (317.9 K, 522.6 kPa): 181.9 ± 0.8 J/K/mol
molar heat capacity at constant pressure (322.94 K, 518.4 kPa): 185.66 ± 0.67 J/K/mol
molar heat capacity at constant pressure (322.95 K, 517.7 kPa): 184.85 ± 1.5 J/K/mol and 184.58 ± 0.67 J/K/mol
molar heat capacity at constant pressure (327.96 K, 806.4 kPa): 187.13 ± 0.94 J/K/mol
molar heat capacity at constant pressure (327.97 K, 808.9 kPa): 185.92 ± 1.3 J/K/mol
molar heat capacity at constant pressure (332.97 K, 815 kPa): 189.41 ± 0.94 J/K/mol
molar heat capacity at constant pressure (332.97 K, 816.5 kPa): 187.8 ± 0.94 J/K/mol
molar heat capacity at constant pressure (337.98 K, 810.3 kPa): 190.62 ± 0.94 J/K/mol
molar heat capacity at constant pressure (342.96 K, 817.2 kPa): 192.22 ± 0.8 J/K/mol
molar heat capacity at constant pressure (342.99 K, 813.6 kPa): 192.49 ± 0.8 J/K/mol
